# Experimental data: PubChem BioAssay (NCI)
#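 Test compounds were applied to cells in 96-well plates for 48 hours at 5 doses. Definition used: TGI = concentration required for complete inhibition of growth.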
# Key:
# Test in all cases: NCI anticancer screen, dose series, 48 h
# [1] = tested on: EKVX NSCLC
# [2] = tested on: DU-145 prostate
# [3] = tested on: MDA-MB-435
# [4] = tested on: ACHN renal
# [5] = tested on: SNB-75 CNS
# [6] = tested on: A549 NSCLC
# [7] = tested on: LOX IMVI melanoma
# [8] = tested on: MDA-MB-231 breast
# [9] = tested on: HOP-62 NSCLC
# [10] = tested on: SK-MEL-28 melanoma
# [11] = tested on: HCT-116 colon
# [12] = tested on: OVCAR-4 ovarian
# [13] = tested on: UO-31 renal
# [14] = tested on: HCC-2998 colon
# [15] = tested on: NCI-H522 lung
# [16] = tested on: 786-0 renal
# [17] = tested on: RPMI-8226 leukemia
# [18] = tested on: OVCAR-3 ovarian
# [19] = tested on: SK-MEL-5 melanoma
# [20] = tested on: CAKI-1 renal
# [21] = tested on: IGROV1 ovarian
# [22] = tested on: SN12C renal
# [23] = tested on: UACC-62 melanoma
# [24] = tested on: OVCAR-5 ovarian
# [25] = tested on: KM12 colon
# [26] = tested on: SK-OV-3 ovarian
# [27] = tested on: RXF 393 renal
# [28] = tested on: SW-620 colon
# [29] = tested on: M14 melanoma
# [30] = tested on: COLO 205 colon
# [31] = tested on: SNB-19 CNS
# [32] = tested on: TK-10 renal
# [33] = tested on: MCF7 breast
# [34] = tested on: BT-549 breast
# [35] = tested on: HS 578T breast
# [36] = tested on: MALME-3M melanoma
# [37] = tested on: UACC-257 melanoma
# [38] = tested on: MDA-N
# [39] = tested on: NCI/ADR-RES ovarian
# [40] = tested on: SF-295 CNS
# [41] = tested on: HOP-92 NSCLC
# [42] = tested on: NCI-H226 lung
# [43] = tested on: OVCAR-8 ovarian
# [44] = tested on: SR leukemia
# [45] = tested on: SF-268 CNS
# [46] = tested on: HCT-15 colon
# [47] = tested on: HT29 colon
# [48] = tested on: K-562 leukemia
# [49] = tested on: SF-539 CNS
# [50] = tested on: NCI-H23 lung
# [51] = tested on: NCI-H460 lung
# [52] = tested on: HL-60(TB) leukemia
# [53] = tested on: T-47D breast
# [54] = tested on: SK-MEL-2 melanoma
# [55] = tested on: MOLT-4 leukemia
# [56] = tested on: PC-3 prostate
# [57] = tested on: U251 CNS
# [58] = tested on: A498 renal
structure (smiles),measurement,setting,value
CC(C)(C)OC(=O)N1C(OP(=O)(Oc2ccccc2)Oc2ccccc2)=COc2cccnc21,TGI,[1],> 100 µM
same,TGI,[2],> 100 µM
same,TGI,[3],> 100 µM
same,TGI,[4],> 100 µM
same,TGI,[5],> 100 µM
same,TGI,[6],> 100 µM
same,TGI,[7],85.3 µM
same,TGI,[8],> 100 µM
same,TGI,[9],> 100 µM
same,TGI,[10],> 100 µM
same,TGI,[11],> 100 µM
same,TGI,[12],> 100 µM
same,TGI,[13],> 100 µM
same,TGI,[14],> 100 µM
same,TGI,[15],> 100 µM
same,TGI,[16],> 100 µM
same,TGI,[17],53.2 µM
same,TGI,[18],> 100 µM
same,TGI,[19],35.5 µM
same,TGI,[20],> 100 µM
same,TGI,[21],> 100 µM
same,TGI,[22],> 100 µM
same,TGI,[23],> 100 µM
same,TGI,[24],> 100 µM
same,TGI,[25],> 100 µM
same,TGI,[26],> 100 µM
same,TGI,[27],> 100 µM
same,TGI,[28],> 100 µM
same,TGI,[29],> 100 µM
same,TGI,[30],> 100 µM
same,TGI,[31],> 100 µM
same,TGI,[32],> 100 µM
same,TGI,[33],> 100 µM
same,TGI,[34],> 100 µM
same,TGI,[35],> 100 µM
same,TGI,[36],98.2 µM
same,TGI,[37],> 100 µM
same,TGI,[38],> 100 µM
same,TGI,[39],> 100 µM
same,TGI,[40],> 100 µM
same,TGI,[41],92.5 µM
same,TGI,[42],> 100 µM
same,TGI,[43],> 100 µM
same,TGI,[44],82.9 µM
same,TGI,[45],> 100 µM
same,TGI,[46],> 100 µM
same,TGI,[47],> 100 µM
same,TGI,[48],> 100 µM
same,TGI,[49],> 100 µM
same,TGI,[50],> 100 µM
same,TGI,[51],94 µM
same,TGI,[52],36.6 µM
same,TGI,[53],94.2 µM
same,TGI,[54],55.7 µM
same,TGI,[55],43.3 µM
same,TGI,[56],> 100 µM
same,TGI,[57],> 100 µM
N#CC1=CNc2sccc2S1(=O)=O,TGI,[1],> 100 µM
same,TGI,[2],> 100 µM
same,TGI,[3],> 100 µM
same,TGI,[4],> 100 µM
same,TGI,[5],> 100 µM
same,TGI,[6],> 100 µM
same,TGI,[7],> 100 µM
same,TGI,[8],> 100 µM
same,TGI,[9],> 100 µM
same,TGI,[10],> 100 µM
same,TGI,[11],> 100 µM
same,TGI,[12],> 100 µM
same,TGI,[13],> 100 µM
same,TGI,[14],> 100 µM
same,TGI,[15],> 100 µM
same,TGI,[16],> 100 µM
same,TGI,[17],> 100 µM
same,TGI,[18],> 100 µM
same,TGI,[19],> 100 µM
same,TGI,[20],> 100 µM
same,TGI,[21],> 100 µM
same,TGI,[22],> 100 µM
same,TGI,[23],> 100 µM
same,TGI,[24],> 100 µM
same,TGI,[25],> 100 µM
same,TGI,[26],> 100 µM
same,TGI,[58],> 100 µM
same,TGI,[28],> 100 µM
same,TGI,[29],> 100 µM
same,TGI,[30],> 100 µM
same,TGI,[31],> 100 µM
same,TGI,[32],> 100 µM
same,TGI,[33],> 100 µM
same,TGI,[34],> 100 µM
same,TGI,[35],> 100 µM
same,TGI,[36],> 100 µM
same,TGI,[37],> 100 µM
same,TGI,[38],> 100 µM
same,TGI,[39],> 100 µM
same,TGI,[40],> 100 µM
same,TGI,[41],> 100 µM
same,TGI,[42],> 100 µM
same,TGI,[43],> 100 µM
same,TGI,[45],> 100 µM
same,TGI,[46],> 100 µM
same,TGI,[47],> 100 µM
same,TGI,[49],> 100 µM
same,TGI,[50],> 100 µM
same,TGI,[51],> 100 µM
same,TGI,[53],> 100 µM
same,TGI,[54],> 100 µM
same,TGI,[55],> 100 µM
same,TGI,[56],> 100 µM
same,TGI,[57],> 100 µM
